Assay results taken from patent US20230390315A1, “COMPOSITIONS AND METHODS FOR TREATING ISCHEMIC CONDITIONS” (The Regents of the University of California, priority 2020, published 2023).

Key:
[1] = system: bovine choroidal microvascular endothelial cells (BCEC); assay: BCEC proliferation assay; type: cell-based
Description: Proliferation assays with BCECs and BRECs were performed. Log-phase growing BCECs or BRECs (passage <10) were trypsinized, re-suspended and seeded in 96-well plates (no coating) in low-glucose DMEM supplemented with 10% bovine calf serum, 2 mM glutamine, and antibiotics (growth medium), at a density of 1200-1500 cells per well in 200 μl volume. All reagents were added at the indicated final concentrations. […] Fluorescence was measured at 530 nm excitation wavelength and 590 nm emission wavelength. The experiments were repeated at least three times. […] On each 96-well plate, untreated and VEGF-treated (10/ng/ml) wells were included to monitor plate-to-plate variations. 20% methanol or 0.05% DMSO served as negative controls. 0.05% DMSO served as negative controls when Cas was tested in these cells. Human […] and human adult […] were split into Gelatin-coated 96 wells (2000 cells per well) in low glucose DMEM containing 10% FBS. 1200 cells/well was set up for proliferation assay in low glucose media containing FBS. […] HUVEC (p7-10) were grown on gelatin-coated plate until it reached 70-80% confluency. On the day of the assay, cells were dissociated with 0.05% trypsin, which was neutralized with 0.5% FBS-containing EBM. Cells were briefly spun and then re-suspended in 0.5% FBS-media. Cells were counted and plated in 96-well, 1000 cells/well. Triplicate wells were used for each treatment. Data were collected at day 3, and then cells were fixed in 4% paraformaldehyde for 15 min before adding crystal violet. Cell-covered areas were quantified after taking pictures by Image J software.

[2] = system: BCEC confluent monolayers; assay: BCEC scratch assay; type: cell-based, bovine; settings: 40 uM ManN or 50 ng/ml of VEGF; after 48 hours
Description: BCECs (passage 6-10) and HUVEC (passage 6-8) were used in this assay. Cells were grown until about 80% confluency in 6-well plates, washed twice with PBS and then starved in serum-free DMEM (low Glucose, Hyclone) for 5 hrs before making a “scratch” using 1 ml tip. Cell monolayers were briefly washed once with serum-free media, followed by various treatments in media containing 1% FBS. 48 hrs later, the assay was stopped by adding 2 ml 4% paraformaldehyde. 20 min later, fixed cells were stained with 1 ml Crystal Violet (Sigma). Plates were washed gently under the running tap water and air-dried before taking pictures. Images were acquired by ZEISS Discovery […] microscopy equipped with […] camera. Quantification of wound closure was done using AxioVision LE Rel.4.4 software. Six images were taken for each sample and six measurements (in pixel) were made on each image using AxioVision LE Rel.4.4 software.

VEGFR2 = assay: Western blot of VEGFR2 molecular mass in BCECs and BRECs; type: cell-based, bovine; settings: BCECs and BRECs
Description: Glycerol-free PNGase F was obtained from New England Biolabs (Ipswich, MA). Briefly, BCECs were lysed with NP-40 containing proteinase inhibitors (Thermo Scientific, Waltham, MA). Lysates were cleared at 4° C. at 5000 g for 25 mins. Total protein content was measured using Pierce BCA protein assay kit (ThermoScientific). […] of protein was mixed with 10× denaturing buffer and H2O to a total volume of […]. Glycoproteins were denatured at 100° C. for 10 mins, followed by adding Glycobuffer and PNGase F. The reaction was carried out at 37° C. for 2 hr.
(§1) Cells were allowed to reach ˜80% confluency in 12-well plates. […] At various time points, plates were taken out of the incubator and kept on ice. Cell monolayers were first washed once with ice-cold PBS before lysis with 250 μl of Pierce RIPA buffer (ThermoFisher Scientific, Rockford, IL) or use 50 mM Tris-HCl (pH 7.6), 150 mM NaCl, 10% Glycerol, 1% NP-40 containing protease/Phosphatase inhibitor cocktail (100×) (Cell signaling, #5872). Lysates were collected and mixed with 4×Bolt LDS Sample Buffer (Novex, Carlsbad, CA) in the presence of Halt protease inhibitors and phosphatase inhibitor cocktail (ThermoFisher scientific, #NP0007). The samples were subjected to SDS-PAGE (Bolt 4-12% Bis-Tris Plus, Invitrogen) using Bolt MES SDS running buffer or NuPAGE 3-8% Tris-Acetate gel using Tris-Acetate SDS running buffer (Novex). HUVECs (passage 6-8) were plated in EBM-2 basal medium (Lonza) with 0.2% FBS. […] Equal amounts of protein lysates were analyzed by SDS-PAGE and blotted with the indicated antibodies. Proteins were transferred using Tris-Glycine buffer with 20% Methanol (Proteonomics grade) (Apex BioResearch Products). Membranes were first incubated with 5% milk in TBST, pH 7.6 (TEKnova, Hollister, CA), followed by blotting with primary and secondary antibodies. ECL anti-rabbit IgG, horseradish peroxidase linked whole antibody from donkey or sheep anti-mouse were obtained from GE Healthcare (UK limited). SuperSignal West Dura Extended Duration substrate was from ThermoFisher Scientific. In some cases, the same PVDF membranes were stripped by 8-min incubation in the Restore Plus Western Blot Stripping Buffer (ThermoFisher Scientific) to show total specific protein expression, followed by second stripping for β-actin expression.

Bip, CHOP and ATF-6 = assay: Western blot of UPR responsive proteins in BCECs; type: cell-based, bovine; settings: growing cells deprived of growth factor supply
Description: as §1

skin wound = assay: Skin wound healing model (splinted wound); type: in vivo, mouse; settings: day 4; topical 20 μg daily
Excerpt: The model has been previously described. Briefly, C57BL/6 female mice (8-10 weeks old) were obtained from Jackson labs (Sacramento, CA). A fresh, full-thickness punch wound (4 mm diameter) using a punch (Acu Punch, Acuderm inc. Ft. Lauderdale, FL) splinted with a sterile neoprene ring (6-mm outer diameter and 4-mm inner diameter), fastened with 5-6 sutures (4-0 nylon) under the influence of Isoflurane was created on the back of the animal in a Class II Biological Safety Cabinet. For all surgical procedures, sterile technique was followed. Buprenorphine was given subcutaneously prior to awakening from anesthesia for anticipated pain. Mice were monitored until fully awake and were housed individually to minimize damage/biting/fighting to the surgical site. […] Treatment agents were prepared in PBS, sterile-filtered and 25 μl solution was applied daily directly to a wound bed for the first 4-5 days under the influence of Isoflurane, followed by daily observation. Wound closure was monitored by regular imaging and the wound area was quantified using ImageJ (National Institutes of Health, Bethesda, MD, USA). […] Epithelial gap was measured histomorphometrically using AxioVision LE Rel.4.4 software. […] Small vessels stained positive for CD31 were counted microscopically on 10 fields (20×) taken around the wound.

VEGF
fold increase in cell proliferation ([1]; 5 ng/ml VEGF): 4-5 fold | dependence of VEGF activity on glycolysis ([1]; glucose-free media): not dependent on the glycolysis pathway | closure of the scratched area compared to control [2]: significantly accelerated | effect on apparent molecular mass of VEGFR2 (VEGFR2): no effect | Bip expression (Bip, CHOP and ATF-6): not | average closure of the wound (skin wound): 66.9%
